Experiment: Potentiometric calcium titration with calcium-selective electrode (calcium binding / chelation)
Assay type: physicochemical
Conditions: Ca2+ binding; 50 mL of 200 ppm hardness solution at 25° C.; NH4Cl/NH4OH buffer pH=9.5, ionic strength 0.1M
Experimental: Calcium chloride dihydrate was purchased from Fisher Scientific. A stock solution of 0.01M […] (1000 ppm, hardness CaCO3) was prepared with distilled deionized water, and 0.03M NH4Cl/0.07M NH4OH buffer (pH=9.5, ionic strength of 0.1M). The later chemicals were obtained from Columbus Chemical Industries, Inc. Standard solution ranging from 200 ppm to 10 ppm was prepared by dilution of the stock solution with the buffer. A plot of the logarithm of calcium ion concentration vs the normalized potential was constructed prior to each titration (Rechnitz, G. A., et al., Anal. Chem. 40 696 (1968); and Nagarajan, M. K., et al., JAOCS 61 1475 (1984)). This was necessary to minimize the effect of signal fluctuations due to solution condition (ionic strength, pH, and the like). […]
The electrode was immersed in a 50 mL of 200 ppm hardness solution at 25° C., and the meter reading was taken while the solution was being stirred by magnet (Blay, J. A., et al., Anal. Lett. 4, 653 (1971)). The calcium binding solution of Compound II was added in small increments and the equilibrium-free calcium ion concentration were measured. When the meter reading indicated less than 10 ppm present in solution, the titration was stopped. […] Chelation constant (logK) of compound II was determined to be 4.23±0.09 according to the following equation [formula] […]

O=C(O)C(O)C(NCCCC[C@H](NC(C(=O)O)C(O)C(=O)O)C(=O)O)C(=O)O (stereo partly drawn) [compound II, 2N,6N-lysine-β-hydroxy disuccinic acid]
Chelation constant (logK): 4.23±0.09

— patent publication US6649793B1, “Process for the preparation of a N,N-diamino amino acid-β-hydroxy disuccinic acid” (Board of Trustees of Michigan State University, priority 2002, dated 2003)
